The test system of experiment [1] is C57BL/KsJ-db/db mice. Also on record: method as in Jung et al., 2006. The following applies: ref Jung et al., 2006; cited from earlier work.
Experiment [2] deals with α-amylase. Nature of the experiment: α-Amylase inhibition assay. The class given is biochemical. The following applies: mean ± SD, triplicate. The protocol: The α-amylase inhibitory activities of the tested Cedrela extracts were determined according to the standard published procedure with minor amendments ([Kazeem et al., 2013]). The enzyme solution was prepared by dissolving α-amylase in 20 mM phosphate buffer (pH = 6.9) at a concentration of 0.50 mg/mL. Then, 1 mL of different concentrations of the tested extract (0.01–100 μg/mL) was mixed with 1 mL of enzyme solution and allowed to sit at room temperature for 10 min. After incubation, 1 mL of 0.50% starch solution was included to the mixture and further incubated at room temperature for 10 min. The reaction was then ended by addition of 3,5-dinitrosalicylic acid (2 mL) and then heating the reaction mixture in a boiling water bath for 5 min. After cooling, the absorbance of the mixture was colorimetrically determined at 565 nm. Pioglitazone was used as a standard drug.
The assays were performed in triplicates, and the obtained values are stated as mean ± SD. For the in vitro investigation of α-amylase and α-glucosidase inhibitory properties, the IC50 was obtained from the graph plots of the dose–response curves at each oil concentration via Graph Pad Prism® software (San Diego, CA, United States).

Experiment [3] relates to streptozotocin-induced diabetic mice. On the set-up: method as in Lee et al., 2010; Jang et al., 2009; Jang et al., 2010. Conditions: streptozotocin-nicotinamide-induced, streptozotocin + high-fat diet and streptozotocin-induced diabetic mice, ref Lee et al., 2010, Jang et al., 2009; cited from earlier work.
For experiment [4], the target named is α-glucosidase (Saccharomyces cerevisiae, UniProt P53341). On the set-up: method as in Shen et al., 2023. Conditions: ref Shen et al., 2023; cited from earlier work.
α-glucosidase, sequence (P53341 whole entry): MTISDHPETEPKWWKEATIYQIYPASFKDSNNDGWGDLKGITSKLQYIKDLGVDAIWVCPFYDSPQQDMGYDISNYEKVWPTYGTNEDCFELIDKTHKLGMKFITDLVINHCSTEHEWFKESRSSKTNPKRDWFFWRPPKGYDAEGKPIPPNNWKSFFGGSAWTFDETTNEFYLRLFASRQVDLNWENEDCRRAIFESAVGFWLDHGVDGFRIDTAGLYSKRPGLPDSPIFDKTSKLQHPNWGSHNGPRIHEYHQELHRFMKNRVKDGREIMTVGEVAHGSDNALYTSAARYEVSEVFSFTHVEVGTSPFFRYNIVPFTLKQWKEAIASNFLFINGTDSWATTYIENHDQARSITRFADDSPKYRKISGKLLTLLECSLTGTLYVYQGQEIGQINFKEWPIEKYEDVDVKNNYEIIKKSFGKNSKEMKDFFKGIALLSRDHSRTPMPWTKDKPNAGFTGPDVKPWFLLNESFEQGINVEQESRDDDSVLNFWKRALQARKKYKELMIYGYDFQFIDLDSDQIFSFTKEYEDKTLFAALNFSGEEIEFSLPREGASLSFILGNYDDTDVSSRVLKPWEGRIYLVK
The test system of experiment [5] is α-amylase. On the set-up: method as in Shen et al., 2023. Conditions: ref Shen et al., 2023; cited from earlier work.

As to `O=C(O)/C=C/c1ccc(O)c(O)c1` [Caffeic acid], in experiment [1], the anti-hyperglycemic effect result is “anti-hyperglycemic properties”.

As for `CCc1ccc(CCOc2ccc(CC3SC(=O)NC3=O)cc2)nc1` (stereo not shown) [Pioglitazone], the “α-Amylase inhibition (%)” value in experiment [2] (concentration 0.01 µg/mL) came out at 12.50 ± 2.05%; in experiment [2] (concentration 0.10 µg/mL), 27.70 ± 1.28%; in experiment [2] (concentration 1.00 µg/mL), 45.40 ± 2.45%; in experiment [2] (concentration 10.00 µg/mL), 80.60 ± 0.23%; in experiment [2] (concentration 100.00 µg/mL) it was 91.70 ± 1.05%. Besides, the “α-Amylase inhibition IC50” value in experiment [2] is recorded as 2.17 ± 0.23 µg/mL.

Turning to `C[C@H]1[C@H](C)CC[C@]2(C(=O)O)CC[C@]3(C)C(=CC[C@@H]4[C@@]5(C)CC[C@H](O)C(C)(C)[C@@H]5CC[C@]43C)[C@H]12` [Ursolic acid], the “effect on blood glucose levels” value in experiment [3] is “positive effect on reducing blood glucose levels”.

In the case of `O=c1c(O)c(-c2ccc(O)c(O)c2)oc2cc(O)cc(O)c12` [quercetin], in experiment [4], the “inhibition of α-glucosidase activity” value is recorded as “markedly inhibited”. Also, the “inhibition of α-amylase activity” value in experiment [5] is “markedly inhibited”.

The values are drawn from article PMC11604428, “UPLC-ESI/MS^n metabolic profiling of Cedrela odorata L. and Toona ciliata M. Roem and in vitro investigation of their anti-diabetic activity supported with molecular docking studies” (Frontiers in Chemistry, 2024).
